This test deals with T1, human IDO (Homo sapiens, UniProt P14902).
T1 construct: The IDO gene was obtained from the IMAGE consortium as a 1586 bps fragment cloned in the vector pCMV-SPORT6; expressed in transfected cells
Put plainly: Growth inhibition of BLOCKADE cells with small molecule compounds (life/death screen). Type of test: cell-based. Particulars: S. cerevisiae BLOCKADE cells, minimum medium with 2% galactose, 10, 5, 2.5 and 1 μM compound, 3 days at 30° C.; WT cells at 10 μM as cytotoxicity control. The method, then:
Cells were pre-grown on a mixture of 1.2% glucose and 0.8% galactose until reaching early exponential phase (OD=1-2). The cells were washed three times with water and then resuspended in fresh selective medium containing 2% galactose, in order to fully activate IDO expression. Cells were dispensed into 96-well plates and inhibitor compounds were added to the cell culture at concentrations of 10, 5, 2.5 and 1 μM. Growth was monitored during 3 days at 30° C. under agitation. Compounds were selected from diverse libraries.
IDO inhibitory compounds were identified as those that repressed the growth of the cells. Possible cytotoxic effects of the compounds were identified by growing the wild type strain in the same condition at a concentration of 10 μM. Compounds inhibiting both BLOCKADE cells and wild type strains were considered as cytotoxic and therefore not selected for further development. Compounds inhibiting only BLOCKADE cells, but not the wild type strains were considered as hits, potential IDO inhibitory compounds.

T1 sequence (P14902 whole entry, the tested form may be a part): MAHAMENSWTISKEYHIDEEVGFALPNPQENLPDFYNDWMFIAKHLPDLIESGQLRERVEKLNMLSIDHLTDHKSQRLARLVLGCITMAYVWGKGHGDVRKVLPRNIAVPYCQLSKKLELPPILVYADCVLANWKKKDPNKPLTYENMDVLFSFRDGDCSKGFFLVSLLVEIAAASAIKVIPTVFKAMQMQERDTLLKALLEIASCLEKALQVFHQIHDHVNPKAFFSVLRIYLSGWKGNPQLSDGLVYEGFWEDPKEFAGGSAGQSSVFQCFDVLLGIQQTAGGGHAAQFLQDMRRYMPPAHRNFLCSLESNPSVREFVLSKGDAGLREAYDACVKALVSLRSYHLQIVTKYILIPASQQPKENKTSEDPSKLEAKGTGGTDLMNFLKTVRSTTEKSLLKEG

As to `O=C(O)CCn1c2ccc(Br)cc2c2cc(Br)ccc21` [BLK200769], the “Inhibition of growth of BLOCKADE cells” value is on record as “inhibition”.
